Legend:
[1] = tested on: normal kidney tissue (NK) lysate, tyrosine kinase activity; test: Peptide microarray (PamChip) kinase activity profiling of normal kidney lysate with kinase inhibitor added to the lysate; type: biochemical, human
Experimental: (§1) Both normal and tumor kidney tissue were derived from resection material immediately after surgery. These tissues were snap-frozen and were stored at −85° C. The tissues were cut in slices of 10 μm and stored. For protein extraction 6 slices were lysed in 100 μL of Mammalian Protein Extraction Buffer (M-PER), a lysis buffer containing HALT protease and phosphatase inhibitors, for 60 minutes on ice. The protein concentration was determined for each sample and for the analysis on a peptide microarray comprising 144 peptides typically 5 μg of protein was used. […]
(§2) To assess the effect of a kinase inhibitor, the kinase inhibitors sorafinib or sunitinib were added to the lysate before application onto the peptide microarray. During 60 cycles of pumping the lysate reaction mixture through the array, peptide phosphorylation was detected by the fluorescently labelled PY20 anti-phosphotyrosine antibody present in the lysate reaction mixture. Real time data were obtained by measuring fluorescence of the bound anti-phosphotyrosine antibody after each 5 cycles. […] Signals for each spot on the image were quantified. Image quantification and data processing was conducted with dedicated PamGene software (Evolve and Bionavigator). […]

[2] = tested on: tumor kidney (RCC) tissue lysate, tyrosine kinase activity; test: Peptide microarray (PamChip) kinase activity profiling of tumor kidney lysate with kinase inhibitor added to the lysate; type: biochemical, human
Experimental: as §1, §2

phosphorylation pattern compared to the control (DMSO) ([1]; lysate of normal kidney tissue (NK) of one patient, inhibitor pipetted into lysate, FIG. 4 heatmap): decreased phosphorylation pattern
inhibition of peptide phosphorylation, peptides indicated by upward arrows ([1]; normal tissue, on-chip treatment, candidate markers for off-target effects, FIG. 4): show inhibition
phosphorylation pattern compared to the control (DMSO) ([2]; lysate of tumor kidney (RCC) tissue of one patient, inhibitor pipetted into lysate, FIG. 4 heatmap): decreased phosphorylation pattern
inhibition of peptide phosphorylation, peptides indicated by downwards arrows ([2]; tumor tissue, on-chip treatment, in comparison to other peptides, FIG. 4): highly inhibited
Structure (SMILES): CNC(=O)c1cc(Oc2ccc(NC(=O)Nc3ccc(Cl)c(C(F)(F)F)c3)cc2)ccn1 [sorafinib, sorafenib]

Source: patent publication US20120115754A1, “METHOD FOR DIAGNOSING AND/OR TYPING RENAL CELL CARCINOMA” (priority 2009, published 2012)
